Test system: human washed platelets
Assay: In vitro platelet aggregation assay
Format: cell-based
Settings: agent alone (TRAP 20 μM, ADP 20 μM or Ir-CPI 500 μg/100 μL); n=1
Description: Blood from healthy human donors, who had not taken anti-platelet agents within the 15 days prior to collection, was collected in citrated tubes and centrifuged for 13 min at 200 g. The platelet-rich plasma was collected and centrifuged for 13 min at 900 g in Tyrode buffer (138 mM NaCl, 2.9 mM KCl, 12 mM NaHCO3, 5.5 mM glucose, 1.8 mM CaCl2 and 0.4 mM MgCl2, pH 7.4) containing 0.2% BSA, apyrase 0.02 U/mL and PGI2 500 nM. Washed platelets were resuspended in the Tyrode/BSA 0.2%/apyrase/PGI2 solution and centrifuged at 900 g for 13 min. Platelets were resuspended in a Tyrode/BSA 0.2% solution at a concentration of 3.10^8 platelets/mL. Platelets were kept at 37° C. for 30 min in a solution containing […]. Next, platelets were incubated at 37° C. under agitation for 5 to 10 minutes in an aggregometer APACT 4004 with ADP (adenosine diphosphate), TRAP (Thrombin Receptor-Activating Peptide) and/or Ir-CPI.
The effect of Ir-CPI on platelet aggregation was assessed in vitro by using isolated human washed platelets (n=1).

`Nc1ncnc2c1ncn2[C@@H]1O[C@H](COP(=O)(O)OP(=O)(O)O)[C@@H](O)[C@H]1O` [ADP, adenosine diphosphate, reference compound] was tested. Which “Aggregation Latency” value did it give?
The value was 51.8 s.

What about the “Aggregation Max” value of the same compound?
The value was 6.9%.

What about the “Aggregation Slope” value of the same compound?
Its value is 19.4 %/min.

— patent US20250295734A1, “ANTICOAGULANT PROTEINS AND THEIR USE FOR TREATING DISEASES ASSOCIATED WITH THE ACTIVATION OF NEUTROPHILS” (BIOXODES, priority 2018, published 2025)
